Counter-ions that a name gives are not always drawn.
Biological target: T1, recombinant human liver GK (Homo sapiens, UniProt P35557)
T1 construct: made in house; host or cells: E. coli
T1 sequence (P35557 1-466 isoform P35557-2): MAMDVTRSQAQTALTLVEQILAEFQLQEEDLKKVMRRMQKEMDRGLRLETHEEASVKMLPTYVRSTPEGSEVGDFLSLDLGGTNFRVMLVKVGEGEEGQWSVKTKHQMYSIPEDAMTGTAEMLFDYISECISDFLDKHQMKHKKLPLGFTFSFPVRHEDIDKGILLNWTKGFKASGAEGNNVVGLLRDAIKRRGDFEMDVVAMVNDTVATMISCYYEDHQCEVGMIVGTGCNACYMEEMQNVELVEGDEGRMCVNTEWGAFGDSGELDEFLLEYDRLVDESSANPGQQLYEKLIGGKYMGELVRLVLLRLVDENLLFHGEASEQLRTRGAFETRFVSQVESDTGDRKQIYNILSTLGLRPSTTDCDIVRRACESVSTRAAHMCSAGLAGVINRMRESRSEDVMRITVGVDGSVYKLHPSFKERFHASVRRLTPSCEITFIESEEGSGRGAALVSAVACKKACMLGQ
Experiment: Glucokinase-activating effect (Thio-NADH coupled assay with G6PDH, 2.5 mM glucose)
Format: biochemical
Conditions: OD level of DMSO control set as 100%; final glucose concentration 2.5 mM; 30° C.
From the text: The excellent glucokinase-activating effect of the compounds of the formula (I) may be determined by a method described in literature (for example, Diabetes, Vol. 45, pp. 1671-1677, 1996), or in accordance with it.
The glucokinase activity may be determined not by directly measuring glucose-6-phosphate but by measuring the level of Thio-NADH, which is produced when a reporter enzyme, glucose-6-phosphate dehydrogenase produces phosphogluconolactone from glucose-6-phosphate, and based on the level, the degree of glucokinase activation by the compound tested may be determined
In this assay, used was a recombinant human liver GK, which was expressed by E. coli as a FLAG fusion protein therein and was purified by ANTIFLAG M2 AFFINITY GEL (Sigma).
Using a flat-bottomed 96-well plate, the assay was carried out at 30° C. 69 μl of an assay buffer (25 mM Hepes Buffer/pH=7.2, 2 mM MgCl2, 1 mM ATP, 0.5 mM TNAD, 1 mM dithiothreitol) was put into the plate, and 1 μl of a DMSO solution of the compound or DMSO alone as a control was added thereto. Next, 20 μl of an enzyme mixture (FLAG-GK, 20 U/ml G6PDH) cooled in ice was added to it, and 10 μl of a substrate, 25 mM glucose was added to it, and the reaction was initiated (final glucose concentration=2.5 mM).
After the start of the reaction, the increase in the absorbance at 405 nm was measured for 12 minutes at intervals of 30 seconds, and the increase for the first 5 minutes was used for assessing the compound tested. FLAG-GK was added so that the absorbance increase after 5 minutes in the presence of 1% DMSO could be from 0.04 to 0.06.
The OD level of the DMSO control was set as 100%; and the OD level of the test compound at different concentrations was determined. From the OD level at each concentration, Emax (%) and EC50 (μM) were computed and used as the index of the GK-activating potency of the compound.
The comparative test was conducted to compare the compound of example 18, 31 and 32 in this invention with the compound (A) in the patent document 1. The test method in vitro was similar to pharmacological experiment 1 (glucokinase-activating effect).

Row | Compound | Emax
1 | CN(C)CCOc1ccc(Oc2ccc3ncnc(Nc4ccn(C)n4)c3c2)cn1 [Example 3, 6-({6-[2-(dimethylamino)ethoxy]pyridin-3-yl}oxy)-N-(1-methyl-1H-pyrazol-3-yl)quinazoline-4-amine] | 918%
2 | CN(C)CCOc1ncc(Oc2ccc3ncnc(Nc4ccn(C)n4)c3c2)cn1 [Example 7, 6-({2-[2-(dimethylamino)ethoxy]pyrimidin-5-yl}oxy)-N-(1-methyl-1H-pyrazol-3-yl)quinazoline-4-amine] | 695%

More lines, now with the values ahead:

Row | Emax | Compound
3 | 888% | Cc1cnc(Nc2ncnc3ccc(Oc4ncc(OCCCO)cc4Cl)cc23)cn1 [Example 61, 3-{[5-chloro-6-({4-[(5-methylpyrazin-2-yl)amino]quinazolin-6-yl}oxy)pyridin-3-yl]oxy}propan-1-ol]
4 | 598% | CN(C)CCN(C)C(=O)c1ccnc(Oc2ccc3ncnc(Nc4ccn(C)n4)c3c2)c1Cl [Example 67, 3-chloro-N-[2-(dimethylamino)ethyl]-N-methyl-2-({4-[(1-methyl-1H-pyrazol-3-yl)amino]quinazolin-6-yl}oxy)isonicotinamide]
5 | 979% | CNCCOc1cnc(Oc2ccc3ncnc(Nc4ccn(C)n4)c3c2)c(C)c1 [Example 70, N-methyl-2-{[5-methyl-6-({4-[(1-methyl-1H-pyrazol-3-yl)amino]quinazolin-6-yl}oxy)pyridin-3-yl]oxy}ethanamine hydrochloride]

Same assay, conditions: final glucose concentration 2.5 mM; 30° C.; read-out: EC50

Row | Compound | EC50
6 | CN(C)CCOc1cnc(Oc2ccc3ncnc(Nc4ccn(C)n4)c3c2)c(Cl)c1 [Example 1, 6-({3-chloro-5-[2-(dimethylamino)ethoxy]pyridin-2-yl}oxy)-N-(1-methyl-1H-pyrazol-3-yl)quinazoline-4-amine] | 80 nM
7 | CN(C)CCOc1cnc(Cl)c(Oc2ccc3ncnc(Nc4ccn(C)n4)c3c2)c1 [Example 2, 6-({2-chloro-5-[2-(dimethylamino)ethoxy]pyridin-3-yl}oxy)-N-(1-methyl-1H-pyrazol-3-yl)quinazoline-4-amine] | 420 nM
8 | CN(C)CCOc1ccc(Oc2ccc3ncnc(Nc4ccn(C)n4)c3c2)cn1 [Example 3, 6-({6-[2-(dimethylamino)ethoxy]pyridin-3-yl}oxy)-N-(1-methyl-1H-pyrazol-3-yl)quinazoline-4-amine] | 1740 nM
9 | CN(C)CCCOc1ccc(Oc2ccc3ncnc(Nc4ccn(C)n4)c3c2)nc1 [Example 4, 6-({5-[3-(dimethylamino)propoxy]pyridin-2-yl}oxy)-N-(1-methyl-1H-pyrazol-3-yl)quinazoline-4-amine] | 380 nM
10 | CC(C)NCCOc1ccc(Oc2ccc3ncnc(Nc4ccn(C)n4)c3c2)nc1 [Example 5, 6-({5-[2-(isopropylamino)ethoxy]pyridin-2-yl}oxy)-N-(1-methyl-1H-pyrazol-3-yl)quinazoline-4-amine] | 260 nM
11 | CN(C)CCOc1ncc(Oc2ccc3ncnc(Nc4ccn(C)n4)c3c2)cn1 [Example 7, 6-({2-[2-(dimethylamino)ethoxy]pyrimidin-5-yl}oxy)-N-(1-methyl-1H-pyrazol-3-yl)quinazoline-4-amine] | 6930 nM
12 | CN(C)CCOc1cnc(Oc2ccc3ncnc(Nc4ccn(C)n4)c3c2)nc1 [Example 8, 6-({5-[2-(dimethylamino)ethoxy]pyrimidin-2-yl}oxy)-N-(1-methyl-1H-pyrazol-3-yl)quinazoline-4-amine] | 1320 nM
13 | CCNCCCOc1cnc(Oc2ccc3ncnc(Nc4ccn(C)n4)c3c2)c(Cl)c1 [Example 20, 6-({3-chloro-5-[3-(ethylamino)propoxy]pyridin-2-yl}oxy)-N-(1-methyl-1H-pyrazol-3-yl)quinazoline-4-amine hydrochloride] | 40 nM
14 | Cn1ccc(Nc2ncnc3ccc(Oc4ncc(OC5CNC5)cc4Cl)cc23)n1 [Example 23, 6-{[5-(azetidin-3-yloxy)-3-chloropyridin-2-yl]oxy}-N-(1-methyl-1H-pyrazol-3-yl)quinazoline-4-amine hydrochloride] | 50 nM
15 | CCN1CC(Oc2cnc(Oc3ccc4ncnc(Nc5ccn(C)n5)c4c3)c(F)c2)C1 [Example 25, 6-({5-[(1-ethylazetidin-3-yl)oxy]-3-fluoropyridin-2-yl}oxy)-N-(1-methyl-1H-pyrazol-3-yl)quinazoline-4-amine hydrochloride] | 230 nM
16 | Cc1cnc(Nc2ncnc3ccc(Oc4ncc(OCCN(C)C)cc4C)cc23)cn1 [Example 34, 6-({5-[2-(dimethylamino)ethoxy]-3-methylpyridin-2-yl}oxy)-N-(5-methylpyrazin-2-yl)quinazoline-4-amine hydrochloride] | 70 nM
17 | Cc1cnc(Nc2ncnc3ccc(Oc4ncc(OCCN(C)C)cc4Cl)cc23)cn1 [Example 35, 6-({3-chloro-5-[2-(dimethylamino)ethoxy]pyridin-2-yl}oxy)-N-(5-methylpyrazin-2-yl)quinazoline-4-amine] | 100 nM
18 | Cc1cnc(Nc2ncnc3ccc(Oc4ccc(OCCNC(C)C)cn4)cc23)cn1 [Example 37, 6-({5-[2-(isopropylamino)ethoxy]pyridin-2-yl}oxy)-N-(5-methylpyrazin-2-yl)quinazoline-4-amine] | 380 nM
19 | Cc1cnc(Nc2ncnc3ccc(Oc4ncc(OCCNC(C)C)cc4F)cc23)cn1 [Example 40, 6-({3-fluoro-5-[2-(isopropylamino)ethoxy]pyridin-2-yl}oxy)-N-(5-methylpyrazin-2-yl)quinazoline-4-amine hydrochloride] | 350 nM
20 | CN(C)CCOc1cnc(Oc2ccc3ncnc(Nc4cnccn4)c3c2)c(Cl)c1 [Example 44, 6-({3-chloro-5-[2-(dimethylamino)ethoxy]pyridin-2-yl}oxy)-N-pyrazin-2-ylquinazoline-4-amine] | 260 nM
21 | COc1ccc2nc(Nc3ncnc4ccc(Oc5ncc(OCCN(C)C)cc5Cl)cc34)sc2n1 [Example 46, 6-({3-chloro-5-[2-(dimethylamino)ethoxy]pyridin-2-yl}oxy)-N-(5-methoxy-[1,3]thiazolo[5,4-b]pyridin-2-yl)quinazoline-4-amine] | 110 nM
22 | Cc1nsc(Nc2ncnc3ccc(Oc4ccc(OCCN(C)C)cn4)cc23)n1 [Example 47, 6-({5-[2-(dimethylamino)ethoxy]pyridin-2-yl}oxy)-N-(3-methyl-1,2,4-thiadiazol-5-yl)quinazoline-4-amine] | 290 nM

Now from value to compound:

Row | EC50 | Compound
23 | 360 nM | Cn1ccc(Nc2ncnc3ccc(Oc4ncc(OCCO)cc4F)cc23)n1 [Example 54, 2-{[5-fluoro-6-({-4-[(1-methyl-1H-pyrazol-3-yl)amino]quinazolin-6-yl}oxy)pyridin-3-yl]oxy}ethanol]
24 | 200 nM | Cc1cnc(Nc2ncnc3ccc(Oc4ncc(OCCO)cc4Cl)cc23)cn1 [Example 58, 2-{[5-chloro-6-({4-[(5-methylpyrazin-2-yl)amino]-1quinazolin-6-yl}oxy)pyridin-3-yl]oxy}ethanol]
25 | 410 nM | Cc1cnc(Nc2ncnc3ccc(Oc4ncc(OCCCO)cc4Cl)cc23)cn1 [Example 61, 3-{[5-chloro-6-({4-[(5-methylpyrazin-2-yl)amino]quinazolin-6-yl}oxy)pyridin-3-yl]oxy}propan-1-ol]
26 | 1140 nM | CN(C)CCCN(C)S(=O)(=O)c1cnc(Oc2ccc3ncnc(Nc4ccn(C)n4)c3c2)c(Cl)c1 [Example 64, 5-chloro-N-[3-(dimethylamino)propyl]-N-methyl-6-({4-[(1-methyl-1H-pyrazol-3-yl)amino]quinazolin-6-yl}oxy)pyridine-3-sulfonamide]
27 | 410 nM | CN(C)CCN(C)C(=O)c1cnc(Oc2ccc3ncnc(Nc4ccn(C)n4)c3c2)c(Cl)c1 [Example 65, 5-chloro-N-[2-(dimethylamino)ethyl]-N-methyl-6-({4-[(1-methyl-1H-pyrazol-3-yl)amino]quinazolin-6-yl}oxy)nicotinamide]
28 | 6090 nM | CN(C)CCN(C)C(=O)c1ccnc(Oc2ccc3ncnc(Nc4ccn(C)n4)c3c2)c1Cl [Example 67, 3-chloro-N-[2-(dimethylamino)ethyl]-N-methyl-2-({4-[(1-methyl-1H-pyrazol-3-yl)amino]quinazolin-6-yl}oxy)isonicotinamide]
29 | 26 nM | CNCCOc1cnc(Oc2ccc3ncnc(Nc4ccn(C)n4)c3c2)c(C)c1 [Example 70, N-methyl-2-{[5-methyl-6-({4-[(1-methyl-1H-pyrazol-3-yl)amino]quinazolin-6-yl}oxy)pyridin-3-yl]oxy}ethanamine hydrochloride]
30 | 230 nM | CC(C)NCCOc1ccc(Oc2ccc3ncnc(Nc4cnn(C)n4)c3c2)nc1 [Example 76, N-(2-{[6-({4-[(2-methyl-2H-1,2,3-triazol-4-yl)amino]quinazolin-6-yl}oxy)pyridin-3-yl]oxy}ethyl)propan-2-amine hydrochloride]
31 | 13 nM | Cc1cc(OCCNC(C)C)cnc1Oc1ccc2ncnc(Nc3cnn(C)n3)c2c1 [Example 81, N-(2-{[5-methyl-6-({4-[(2-methyl-2H-1,2,3-triazol-4-yl)amino]quinazolin-6-yl}oxy)pyridin-3-yl]oxy}ethyl)propan-2-amine hydrochloride]
32 | 40 nM | Cc1cc(OCCO)cnc1Oc1ccc2ncnc(Nc3cnn(C)n3)c2c1 [Example 84, 2-{[5-methyl-6-({4-[(2-methyl-2H-1,2,3-triazol-4-yl)amino]quinazolin-6-yl}oxy)pyridin-3-yl]oxy}ethanol]
